The conditions of data set [1]: ingredient as supplied (EP grade); cited from earlier work.
The subject of the next data set is rat trachea. Nature of the data set: Inhibition of ciliary beating frequency of rat trachea. The data set is classed as cell-based. An excerpt:
The prior art teaches away from the use of chlorobutanol stating that at 0.6% concentration, the chlorobutanol caused more than 50% inhibition of ciliary beating frequency of rat trachea.

In the next data set the test system is frog palate. As to conditions: ex vivo frog palate; Braga et al. 1992; cited from earlier work.
Data set [2] concerns respiratory mucosal tissue. As to conditions: in vitro exposure; Berg et al. 1994; cited from earlier work.
The conditions of data set [3]: healthy volunteers, decongestant nasal spray containing the preservative; cited from earlier work.

Here are results for three molecules from US8486891B2, “Nasal calcitonin formulations containing chlorobutanol” (Par Pharmaceutical, Inc., priority 2003, dated 2013).

“Salmon Calcitonin [Salmon Calcitonin, EP]”: the Potency result in data set [1] is “Potency of 6236 IU/mg”.

With `CC(C)(O)C(Cl)(Cl)Cl` [chlorobutanol], the “effect on ciliary beating frequency of rat trachea” value was “greatly reduced” in the data set on rat trachea (chlorobutanol concentration less than 0.4%) and “totally eliminated” in the data set on rat trachea (chlorobutanol concentration of around 0.25%).

On to benzalkonium chloride, for which the mucocilary transport velocity result in the data set on frog palate is reported as “significant slowing”. Moreover, the “morphological effect on respiratory mucosal tissue” value in data set [2] is listed as “severe morphological alterations”. Also, in data set [3], the effect on rhinitis entry is reported as “aggravate rhinitis”.
